Assay results as given in patent US20120070487A1, “ALKYLSACCHARIDE COMPOSITIONS WITH NUTRACEUTICALS” (AEGIS THERAPEUTICS LLC, priority 2010, published 2012).
One block for each compound: values may come before it. Where a SMILES comes first, the peptide text is derived from it. [ ]: non-standard residue; d: D form.

Experiments:
[1] = Oral absorption of resveratrol with sucrose laurate; blood levels in volunteers; type: in vivo, human; settings: oral gelatin capsules, admixed with 5% w/w sucrose laurate
Description: Resveratrol was obtained from RevGenetics, Miami, Fla., as 300 mg gel capsules. Capsules were opened by carefully separating the two halves. The contents were combined and admixed with 5% w/w food grade sucrose laurate alkylsaccharide (Ryoto Sugar Ester M-1216, Mitsubishi-Kagaku Tokyo, Japan). Gelatin capsules were filled with the admixture and administered to volunteers. Blood samples are collected and resveratrol levels are measured by the method of Soleas et al. (Methods Enzymol 335: 130-45 (2001)). The resveratrol blood levels obtained following oral administration with sucrose laurate are at least 20% higher than those obtained in the absence of sucrose laurate.

[2] = Oral absorption of calcium with alkylsaccharide; blood levels in volunteers; type: in vivo, human; settings: oral gelatin capsules, calcium citrate admixed with 3% dodecyl maltoside
Description: Calcium citrate is obtained from General Nutrition Corp. as 1000 mg tablets. The tablets are ground in a mortar and pestle until a fine uniform powder is created. The powder is admixed with 3% dodecyl maltoside, pharmaceutical grade (Inalco Chemical Co., Milan Italy) and filled into gelatin capsules, size #000-25 mm length (Capsuline, Pompano Beach, Fla.) and administered to volunteers. Blood samples are collected and calcium levels are measured by commercial clinical laboratory. The calcium blood levels obtained following oral administration with dodecyl maltoside are seen to be at least 20% higher than those obtained in the absence of dodecyl maltoside.

[3] = mouse, in vivo
Description: (§1) Doses of 1 mg each were also administered to mice by the IP, SC and IM routes in solutions containing 0.18% tetradecyl beta-D-maltoside and compared to administration by oral gavage in a solution containing 0.3% (3 mg/mL wt/vol) of tetradecyl-beta-D-maltoside.
(§2) Six week-old male Swiss Webster mice weighing approximately 30 gm were maintained at a constant temperature (24 C) with lights on from 07:00 to 19:00 h, and allowed food and water ad libitum until used for uptake studies. […] For sc, im, and ip delivery, the peptide was dissolved in sterile phosphate buffered saline (PBS, pH 7.2) at a concentration of 1 mg/200 μL as described previously containing 0.18% tetradecyl-beta-D-maltoside. For oral gavage [D-Leu-4]OB3 was dissolved in 0.3% dodecyl-beta-D-maltoside reconstituted in PBS (pH 7.2) at a concentration of 1 mg/200 μL. […]
(§3) The [D-Leu-4]OB3 competitive ELISA assay was carried out as follows. […] Absorbance was read at 405 nm with a Molecular Devices microplate reader (MDS Sciex, Concord, Ontario Canada). […] The relative bioavailability was determined by plotting the serum concentrations of mouse [D-Leu-4]OB3 vs. time following ip, sc, or im delivery using the graphics program SigmaPlot™ 8.0 (SPSS Science, Chicago, Ill., USA). The area under each curve (AUC) was calculated with a function of this program.

in vivo = settings: male, Swiss Webster, mouse, po, 1 mg
Description: as §1, §2, §3

resveratrol blood levels, increase versus absence of sucrose laurate [1]: at least 20%
SMILES: Oc1ccc(C=Cc2cc(O)cc(O)c2)cc1 [Resveratrol]

SMILES: O=C([O-])CC(O)(CC(=O)[O-])C(=O)[O-].O=C([O-])CC(O)(CC(=O)[O-])C(=O)[O-].[Ca+2].[Ca+2].[Ca+2] [Calcium citrate]
calcium blood levels, increase versus absence of dodecyl maltoside [2]: at least 20%

Relative Oral Bioavailability Compared to Three Injection Modes (% of AUC achieved by each respective injection) [3]: 37.8% of IM AUC
F rel (in vivo): 47.3%
SMILES: CC(C)C[C@@H](NC(=O)[C@H](CO)NC(=O)[C@H](CS)NC(=O)[C@@H](N)CO)C(=O)N1CCC[C@H]1C(=O)N[C@@H](CCC(N)=O)C(=O)N[C@H](C(N)=O)[C@@H](C)O [[D-Leu-4]OB3, Ser-Cys-Ser-D-Leu-Pro-Gln-Thr] (H-SCS[dL]PQT-NH2; N-terminus assumed)
